The subject of one experiment is KB. The experiment in a line: Cytotoxicity against human KB cells. In kind it is functional, cell-based.
A further experiment relates to LoVo. The experiment can be described thus: Cytotoxicity against human LoVo cells. In kind it is functional, cell-based.

For orientation: IC50 means the concentration that gives 50% inhibition. Read a high IC50 as a need for much substance.

Converted amounts (≈) assume the structure as drawn.

In the case of `CC[C@H](C)[C@H](O)C(=O)N[C@@H](CC(C)C)C(=O)N(C)[C@@H](CCC(N)=O)C(=O)N[C@H](C(=O)NCC(=O)N(C)[C@H](Cc1ccccc1)C(=O)N1CCC[C@H]1C(=O)OC)[C@@H](C)CC` [TASIAMIDE], the IC50 in the experiment on KB came out at 0.48 µg/mL (≈ 0.578 µM); with LoVo, 3.47 µg/mL (≈ 4.18 µM).

Values taken from ChEMBL document CHEMBL1150640, “Tasiamide, a cytotoxic peptide from the marine cyanobacterium Symploca sp” (J Nat Prod, 2002).
